This experiment has as its system MV-4-11 cells. The experiment is described as follows: Gene expression microarray analysis (Affymetrix PrimeView) and GSEA. The format is cell-based, human. Details: RFU PODN (11730768_x_at) / Fold change /veh PODN (11730768_x_at) / RFU LINC00158 (11744669_a_at) / Fold change /veh LINC00158 (11744669_a_at) / RFU DUSP10 (11751237_a_at) / Fold change /veh DUSP10 (11751237_a_at) / RFU ID3 (11757404_x_at) / Fold change /veh ID3 (11757404_x_at) / RFU PLEKHG5 (11737974_s_at) / Fold change /veh PLEKHG5 (11737974_s_at) / RFU LRRC4B (11730491_at) / Fold change /veh LRRC4B (11730491_at) / RFU GIMAP4 (11747438_a_at) / Fold change /veh GIMAP4 (11747438_a_at) / RFU KRT8 (11758183_x_at) / Fold change /veh KRT8 (11758183_x_at) / RFU CNN1 (11734310_a_at) / Fold change /veh CNN1 (11734310_a_at) / RFU VPS37D (11726825_at) / Fold change /veh VPS37D (11726825_at) / RFU C10orf10 (11716522_x_at) / Fold change /veh C10orf10 (11716522_x_at) / RFU KIR2DL2 /// KIR2DL4 /// KIR2DL5A /// KIR2DL5B /// KIR2DS1 /// KIR2DS2 /// KIR2DS3 /// KIR2DS4 /// KIR3DL3 /// KIR3DL3 /// KIR3DS1 (11738374_at) / Fold change /veh KIR2DL2 /// KIR2DL4 /// KIR2DL5A /// KIR2DL5B /// KIR2DS1 /// KIR2DS2 /// KIR2DS3 /// KIR2DS4 /// KIR3DL3 /// KIR3DL3 /// KIR3DS1 (11738374_at) / RFU C1QL1 (11718748_at) / Fold change /veh C1QL1 (11718748_at) / RFU TMPRSS4 (11747572_a_at) / Fold change /veh TMPRSS4 (11747572_a_at) / RFU HAMP (11756126_x_at) / Fold change /veh HAMP (11756126_x_at) / RFU RNFT2 (11725882_a_at) / Fold change /veh RNFT2 (11725882_a_at) / RFU NR4A2 (11747474_a_at) / Fold change /veh NR4A2 (11747474_a_at) / RFU ABCC12 (11746883_a_at) / Fold change /veh ABCC12 (11746883_a_at) / RFU TMEM136 (11760407_x_at) / Fold change /veh TMEM136 (11760407_x_at) / RFU CLDN22 /// WWC2 (11732394_at) / Fold change /veh CLDN22 /// WWC2 (11732394_at) / RFU HLA-DPB1 (11760878_x_at) / Fold change /veh HLA-DPB1 (11760878_x_at) / RFU SPINT1 (11716480_a_at) / Fold change /veh SPINT1 (11716480_a_at) / RFU GAP43 (11754022_s_at) / Fold change /veh GAP43 (11754022_s_at) / RFU A4GNT (11735810_at) / Fold change /veh A4GNT (11735810_at) / RFU PRB3 (11715151_x_at) / Fold change /veh PRB3 (11715151_x_at) / RFU TUBB4B (11761932_at) / Fold change /veh TUBB4B (11761932_at) / RFU CAPN14 (11732068_a_at) / Fold change /veh CAPN14 (11732068_a_at) / RFU TMCC2 (11721928_a_at) / Fold change /veh TMCC2 (11721928_a_at) / RFU IRGQ (11745062_a_at) / Fold change /veh IRGQ (11745062_a_at) / RFU FAM174B (11720279_a_at) / Fold change /veh FAM174B (11720279_a_at) / RFU TMPRSS4 (11748680_a_at) / Fold change /veh TMPRSS4 (11748680_a_at) / RFU FAM212B (11763350_a_at) / Fold change /veh FAM212B (11763350_a_at) / RFU PLEKHG5 (11743358_a_at) / Fold change /veh PLEKHG5 (11743358_a_at) / RFU ZSCAN30 (11745921_a_at) / Fold change /veh ZSCAN30 (11745921_a_at) / RFU CMKLR1 (11741424_a_at) / Fold change /veh CMKLR1 (11741424_a_at) / RFU LOC101060620 /// MAPK8IP1 (11723275_at) / Fold change /veh LOC101060620 /// MAPK8IP1 (11723275_at) / RFU SPTSSB (11747773_x_at) / Fold change /veh SPTSSB (11747773_x_at) / RFU PRSS12 (11739890_at) / Fold change /veh PRSS12 (11739890_at) / RFU BIN1 (11741810_x_at) / Fold change /veh BIN1 (11741810_x_at) / RFU WNT11 (11732464_a_at) / Fold change /veh WNT11 (11732464_a_at) / RFU C10orf10 (11716521_a_at) / Fold change /veh C10orf10 (11716521_a_at) / RFU C5orf56 (11738089_at) / Fold change /veh C5orf56 (11738089_at) / RFU CYB561 (11721691_x_at) / Fold change /veh CYB561 (11721691_x_at) / RFU ANKRD19P (11752326_a_at) / Fold change /veh ANKRD19P (11752326_a_at) / RFU OR2T12 /// OR2T33 /// OR2T8 (11738714_s_at) / Fold change /veh OR2T12 /// OR2T33 /// OR2T8 (11738714_s_at) / RFU VCAN (11748164_a_at) / Fold change /veh VCAN (11748164_a_at) / RFU JSRP1 (11732532_at) / Fold change /veh JSRP1 (11732532_at) / RFU KRTAP10-11 (11738290_x_at) / Fold change /veh KRTAP10-11 (11738290_x_at) / RFU MYO3A (11730013_a_at) / Fold change /veh MYO3A (11730013_a_at) / RFU EBF3 (11725865_a_at) / Fold change /veh EBF3 (11725865_a_at) / RFU CAMK2N1 (11719241_x_at) / Fold change /veh CAMK2N1 (11719241_x_at) / RFU C5orf56 (11738088_a_at) / Fold change /veh C5orf56 (11738088_a_at) / RFU OLFML3 (11715873_a_at) / Fold change /veh OLFML3 (11715873_a_at) / RFU LOC100653217 /// NTM (11731650_a_at) / Fold change /veh LOC100653217 /// NTM (11731650_a_at) / RFU MAPK11 (11762145_a_at) / Fold change /veh MAPK11 (11762145_a_at) / RFU FIZ1 (11724087_x_at) / Fold change /veh FIZ1 (11724087_x_at) / RFU OASL (11726364_x_at) / Fold change /veh OASL (11726364_x_at) / RFU SOX15 (11748057_x_at) / Fold change /veh SOX15 (11748057_x_at) / RFU CD79A (11719716_a_at) / Fold change /veh CD79A (11719716_a_at) / RFU HIST1H1D (11736915_at) / Fold change /veh HIST1H1D (11736915_at) / RFU CASKIN2 (11723855_a_at) / Fold change /veh CASKIN2 (11723855_a_at) / RFU LOC730098 (11760151_x_at) / Fold change /veh LOC730098 (11760151_x_at) / RFU OR4N2 (11742367_at) / Fold change /veh OR4N2 (11742367_at) / RFU PRRT2 (11749266_a_at) / Fold change /veh PRRT2 (11749266_a_at) / RFU SNX32 (11753110_a_at) / Fold change /veh SNX32 (11753110_a_at) / RFU CDHR5 (11726645_a_at) / Fold change /veh CDHR5 (11726645_a_at) / RFU RCAN1 (11760418_a_at) / Fold change /veh RCAN1 (11760418_a_at) / RFU FAM167A (11723789_a_at) / Fold change /veh FAM167A (11723789_a_at) / RFU FAM26E (11764081_at) / Fold change /veh FAM26E (11764081_at) / RFU ISYNA1 (11749810_s_at) / Fold change /veh ISYNA1 (11749810_s_at) / RFU ACY1 (11761880_at) / Fold change /veh ACY1 (11761880_at) / RFU 11764098_at / Fold change /veh 11764098_at / RFU SAMD14 (11745864_x_at) / Fold change /veh SAMD14 (11745864_x_at) / RFU NPB (11741838_a_at) / Fold change /veh NPB (11741838_a_at) / RFU TMPRSS6 (11731388_a_at) / Fold change /veh TMPRSS6 (11731388_a_at) / RFU KRTAP10-2 (11738614_at) / Fold change /veh KRTAP10-2 (11738614_at) / RFU ARHGAP8 /// PRR5-ARHGAP8 (11727945_x_at) / Fold change /veh ARHGAP8 /// PRR5-ARHGAP8 (11727945_x_at) / RFU KRTAP5-7 /// NADSYN1 (11734609_at) / Fold change /veh KRTAP5-7 /// NADSYN1 (11734609_at) / RFU RASL12 (11751679_a_at) / Fold change /veh RASL12 (11751679_a_at) / RFU CDKN2B (11736163_a_at) / Fold change /veh CDKN2B (11736163_a_at) / RFU PRF1 (11729649_at) / Fold change /veh PRF1 (11729649_at) / RFU, ZNF638 /// ZNF638-IT1 / Fold change vs veh, ZNF638 /// ZNF638-IT1 / RFU, PANK3 / Fold change vs veh, PANK3 / RFU, SH3YL1 / Fold change vs veh, SH3YL1 / RFU, ZEB2 / Fold change vs veh, ZEB2 / RFU, NRIP1 / Fold change vs veh, NRIP1 / RFU, PTTG1IP / Fold change vs veh, PTTG1IP / RFU, CAPN2 / Fold change vs veh, CAPN2 / RFU, MED14 / Fold change vs veh, MED14 / RFU, SNORA58 / Fold change vs veh, SNORA58 / RFU, C1orf63 / Fold change vs veh, C1orf63 / RFU, LRRFIP1 / Fold change vs veh, LRRFIP1 / RFU, NDUFAF7 / Fold change vs veh, NDUFAF7 / RFU, SLC12A2 / Fold change vs veh, SLC12A2 / RFU, IBTK / Fold change vs veh, IBTK / RFU, ESF1 / Fold change vs veh, ESF1 / Fold change vs veh, TMEM50B / RFU, TAOK1 / Fold change vs veh, TAOK1 / RFU, ACBD3 / Fold change vs veh, ACBD3 / RFU, TMA16 / Fold change vs veh, TMA16 / RFU, RWDD3 / Fold change vs veh, RWDD3 / RFU, BCAT1 / Fold change vs veh, BCAT1 / RFU, EDEM3 / Fold change vs veh, EDEM3 / RFU, TMEM33 / Fold change vs veh, TMEM33 / RFU, WDR75 / Fold change vs veh, WDR75 / RFU, AHCTF1 / Fold change vs veh, AHCTF1 / RFU, TFRC / Fold change vs veh, TFRC / RFU, ZDHHC17 / Fold change vs veh, ZDHHC17 / RFU, NOM1 / Fold change vs veh, NOM1 / RFU, ARL8B / Fold change vs veh, ARL8B / RFU, ZBTB11 / Fold change vs veh, ZBTB11 / RFU, TAMM41 / Fold change vs veh, TAMM41 / RFU, KIAA1704 /// LOC100996395 / Fold change vs veh, KIAA1704 /// LOC100996395 / RFU, ING1 / Fold change vs veh, ING1 / RFU, TRMT61B / Fold change vs veh, TRMT61B / RFU, FUBP3 / Fold change vs veh, FUBP3 / RFU, TP53 / Fold change vs veh, TP53 / RFU, TNKS2 / Fold change vs veh, TNKS2 / RFU, ZFP14 / Fold change vs veh, ZFP14 / RFU, ACTR2 / Fold change vs veh, ACTR2 / RFU, PPP3R1 / Fold change vs veh, PPP3R1 / RFU, PIK3R1 / Fold change vs veh, PIK3R1 / RFU, HNRNPA1 / Fold change vs veh, HNRNPA1 / RFU, RNF170 / Fold change vs veh, RNF170 / RFU, ZNF28 / Fold change vs veh, ZNF28 / RFU, RNGTT / Fold change vs veh, RNGTT / RFU, OGT / Fold change vs veh, OGT / RFU, BRD1 / Fold change vs veh, BRD1 / RFU, MARS / Fold change vs veh, MARS / RFU, ZNF655 / Fold change vs veh, ZNF655 / RFU, FAHD1 / Fold change vs veh, FAHD1 / RFU, BDP1 / Fold change vs veh, BDP1 / RFU, LRRCC1 / Fold change vs veh, LRRCC1 / RFU, ARID1A / Fold change vs veh, ARID1A / RFU, ZNF146 / Fold change vs veh, ZNF146 / RFU, ZNF330 / Fold change vs veh, ZNF330 / RFU, GPN3 / Fold change vs veh, GPN3 / RFU, C9orf123 / Fold change vs veh, C9orf123 / RFU, N4BP2L2 / Fold change vs veh, N4BP2L2 / RFU, ARFIP1 / Fold change vs veh, ARFIP1 / RFU, FAM179B / Fold change vs veh, FAM179B / RFU, BCL10 / Fold change vs veh, BCL10 / RFU, UHRF1BP1L / Fold change vs veh, UHRF1BP1L / RFU, BET1 / Fold change vs veh, BET1 / RFU, CNOT2 / Fold change vs veh, CNOT2 / RFU, ZNF268 / Fold change vs veh, ZNF268 / Fold change vs veh, ZNF507 / RFU, DGCR2 / Fold change vs veh, DGCR2 / RFU, WDSUB1 / Fold change vs veh, WDSUB1 / Fold change vs veh, HSP90B1 /// MIR3652 / RFU, ADSS / Fold change vs veh, ADSS / RFU, GK / Fold change vs veh, GK / RFU, ZNF148 / Fold change vs veh, ZNF148 / RFU, TAF9 / Fold change vs veh, TAF9 / RFU, SLC1A5 / Fold change vs veh, SLC1A5 / RFU, SLMO2 / Fold change vs veh, SLMO2 / RFU, ABCC4 / Fold change vs veh, ABCC4 / RFU, LOC101060439 /// RAP1B / Fold change vs veh, LOC101060439 /// RAP1B / RFU, RFX7 / Fold change vs veh, RFX7 / RFU, GTPBP10 / Fold change vs veh, GTPBP10 / RFU, CNEP1R1 / Fold change vs veh, CNEP1R1 / RFU, BIVM-ERCC5 /// ERCC5 / Fold change vs veh, BIVM-ERCC5 /// ERCC5 / RFU, ILF3 / Fold change vs veh, ILF3 / RFU 11762660_at / Fold change /veh 11762660_at / RFU VCAN (11757783_s_at) / Fold change /veh VCAN (11757783_s_at) / RFU DDX43 (11728927_at) / Fold change /veh DDX43 (11728927_at) / RFU KRT8 (11758188_x_at) / Fold change /veh KRT8 (11758188_x_at) / RFU NKD1 (11759106_at) / Fold change /veh NKD1 (11759106_at) / RFU SRD5A1 (11742802_a_at) / Fold change /veh SRD5A1 (11742802_a_at) / RFU TPSAB1 /// TPSB2 (11721975_s_at) / Fold change /veh TPSAB1 /// TPSB2 (11721975_s_at) / RFU GSTM3 (11746129_a_at) / Fold change /veh GSTM3 (11746129_a_at) / RFU IL23R (11737362_x_at) / Fold change /veh IL23R (11737362_x_at) / RFU TMEM51 (11727254_a_at) / Fold change /veh TMEM51 (11727254_a_at) / RFU PIWIL2 (11732686_x_at) / Fold change /veh PIWIL2 (11732686_x_at) / RFU ORM1 (11744905_x_at) / Fold change /veh ORM1 (11744905_x_at) / RFU CCDC152 (11743942_at) / Fold change /veh CCDC152 (11743942_at) / RFU ECM1 (11717891_a_at) / Fold change /veh ECM1 (11717891_a_at) / RFU IL23R (11748794_a_at) / Fold change /veh IL23R (11748794_a_at) / RFU TNFAIP8L3 (11732012_x_at) / Fold change /veh TNFAIP8L3 (11732012_x_at) / RFU MBOAT4 (11741988_at) / Fold change /veh MBOAT4 (11741988_at) / RFU 11764193_at / Fold change /veh 11764193_at / RFU TMEM53 (11763286_at) / Fold change /veh TMEM53 (11763286_at) / RFU MAGEB2 (11727129_at) / Fold change /veh MAGEB2 (11727129_at) / RFU TMEM200A (11744735_a_at) / Fold change /veh TMEM200A (11744735_a_at) / RFU CCDC152 (11751479_a_at) / Fold change /veh CCDC152 (11751479_a_at) / RFU FAM211A (11726209_a_at) / Fold change /veh FAM211A (11726209_a_at) / RFU RGS16 (11746705_a_at) / Fold change /veh RGS16 (11746705_a_at) / RFU VCAN (11755009_s_at) / Fold change /veh VCAN (11755009_s_at) / RFU RHOB (11743442_s_at) / Fold change /veh RHOB (11743442_s_at) / RFU RGS16 (11720943_a_at) / Fold change /veh RGS16 (11720943_a_at) / RFU RGS16 (11720944_at) / Fold change /veh RGS16 (11720944_at) / RFU, VPS4B / Fold change vs veh, VPS4B / RFU, CREB1 / Fold change vs veh, CREB1 / RFU, DNAJC13 / Fold change vs veh, DNAJC13 / RFU, GNAQ / Fold change vs veh, GNAQ / RFU, CDK5R1 / Fold change vs veh, CDK5R1 / RFU, ZRANB3 / Fold change vs veh, ZRANB3 / RFU, CUL4A / Fold change vs veh, CUL4A / RFU, CCNY / Fold change vs veh, CCNY / RFU, UFL1 / Fold change vs veh, UFL1 / RFU, COG3 / Fold change vs veh, COG3 / RFU, DIAPH2 / Fold change vs veh, DIAPH2 / RFU, SKA2 / Fold change vs veh, SKA2 / RFU, AFF3 / Fold change vs veh, AFF3 / RFU, LMF1 / Fold change vs veh, LMF1 / RFU, IPO11 / Fold change vs veh, IPO11 / RFU, DFFB / Fold change vs veh, DFFB / RFU, FOXP1 / Fold change vs veh, FOXP1 / RFU, CARD8 / Fold change vs veh, CARD8 / RFU, STRN3 / Fold change vs veh, STRN3 / RFU, ADK / Fold change vs veh, ADK / RFU, RASSF2 / Fold change vs veh, RASSF2 / RFU, WIPF1 / Fold change vs veh, WIPF1 / RFU, LARP1B / Fold change vs veh, LARP1B / RFU, RASA1 / Fold change vs veh, RASA1 / RFU, RB1 / Fold change vs veh, RB1 / RFU, PPFIA1 / Fold change vs veh, PPFIA1 / RFU, MAT2A / Fold change vs veh, MAT2A / RFU, CCT5 / Fold change vs veh, CCT5 / RFU, WDR92 / Fold change vs veh, WDR92 / RFU, CUX1 / Fold change vs veh, CUX1 / RFU, TTC7A / Fold change vs veh, TTC7A / RFU, TMEM135 / Fold change vs veh, TMEM135 / RFU, DEPTOR / Fold change vs veh, DEPTOR / RFU, CPM / Fold change vs veh, CPM / RFU, DNAJB6 / Fold change vs veh, DNAJB6 / RFU, CACNA2D3 / Fold change vs veh, CACNA2D3 / RFU, DTX4 / Fold change vs veh, DTX4 / RFU, TFCP2 / Fold change vs veh, TFCP2 / RFU, GMCL1 /// GMCL1P1 / Fold change vs veh, GMCL1 /// GMCL1P1 / RFU, AEBP2 / Fold change vs veh, AEBP2 / RFU, SNHG1 /// SNORD22 /// SNORD25 /// SNORD26 /// SNORD27 /// SNORD28 /// SNORD29 /// SNORD31 / Fold change vs veh, SNHG1 /// SNORD22 /// SNORD25 /// SNORD26 /// SNORD27 /// SNORD28 /// SNORD29 /// SNORD31 / Fold change (Aza/veh), C12orf56 (ProbeSet 11735607_a_at) / Fold change (ACY-1035/veh), C12orf56 (ProbeSet 11735607_a_at) / Fold change (Aza/veh), FGFR1OP (ProbeSet 11751329_s_at) / Fold change (ACY-1035/veh), FGFR1OP (ProbeSet 11751329_s_at) / Fold change (Aza/veh), VPS36 (ProbeSet 11739960_a_at) / Fold change (ACY-1035/veh), VPS36 (ProbeSet 11739960_a_at) / RFU SYPL1 (11715823_x_at) / Fold change /veh SYPL1 (11715823_x_at) / RFU IGFBP7 (11715501_s_at) / Fold change /veh IGFBP7 (11715501_s_at) / RFU REEP3 (11722064_at) / Fold change /veh REEP3 (11722064_at) / RFU IGLL1 (11728026_x_at) / Fold change /veh IGLL1 (11728026_x_at): dose or concentration left out as unconfirmed. The following applies: MV-4-11 cells, 48 hours.

In the case of `Nc1ccc(-c2cccs2)cc1NC(=O)c1ccc2c(c1)cc(C1CC1)n2CCN1CCOCC1` [ACY-1035], the “RFU C5orf56 (11738089_at)” value is given as 10.10 RFU.
